Experimental data published in the supplement of paper PMC11061612.

Tests used:
Assay in all cases: combination Emax (second highest fraction inhibited in the dose matrix, 72 h); higher = more inhibition; extreme values may be limits of the assay
[1] = tested on: CCRF-CEM (T-Lymphoblastic Leukemia)
Summary of the method: (§1)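 After 24 hours at 37°C and 5% CO2 in 1536-well plates, cells in DMEM/F12 or RPMI plus 10% FBS received two-drug dose matrices for 72 hours. Viability came from CellTiter-Glo 2.0 luminescence and was scaled as inhibition, anchored at 0 by vehicle wells and at 1 by blank wells. Combination Emax is taken as the second-highest inhibition in the matrix, and Bliss excess as the observed combination effect less EA + EB − EA·EB, with EA and EB the single-agent effects.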

[2] = tested on: Calu-3 (Lung Adenocarcinoma)
Summary of the method: as §1

[3] = tested on: DoTc2-4510 (Cervical Carcinoma)
Summary of the method: as §1

[4] = tested on: EC-GI-10 (Esophageal Squamous Cell Carcinoma)
Summary of the method: as §1

[5] = tested on: HCC-78 (Lung Adenocarcinoma)
Summary of the method: as §1

[6] = tested on: Hs-578-T (Breast Carcinoma)
Summary of the method: as §1

[7] = tested on: KP-1N (Pancreatic Carcinoma)
Summary of the method: as §1

[8] = tested on: LS-180 (Colorectal Carcinoma)
Summary of the method: as §1

[9] = tested on: MDA-MB-361 (Breast Carcinoma)
Summary of the method: as §1

[10] = tested on: MFE-296 (Endometrial Carcinoma)
Summary of the method: as §1

[11] = tested on: NB10 (Neuroblastoma)
Summary of the method: as §1

[12] = tested on: TE-15 (Esophageal Squamous Cell Carcinoma)
Summary of the method: as §1

Row | Compound | combination Emax [1] | combination Emax [2] | combination Emax [3] | combination Emax [4] | combination Emax [5] | combination Emax [6] | combination Emax [7] | combination Emax [8] | combination Emax [9] | combination Emax [10] | combination Emax [11] | combination Emax [12]
1 | CC1(C)CCC(CN2CCN(c3ccc(C(=O)NS(=O)(=O)c4ccc(NCC5CCOCC5)c([N+](=O)[O-])c4)c(Oc4cnc5[nH]ccc5c4)c3)CC2)=C(c2ccc(Cl)cc2)C1 [Venetoclax] + Cn1cnc2c(F)c(Nc3ccc(Br)cc3Cl)c(C(=O)NOCCO)cc21 [Selumetinib] (first compound max 1 µM, 7x7, partner max 3 µM) | 0.926 | 0.071 | 0.268 | 0.313 | 0.167 | 0.822 | 0.191 | 0.476 | 0.155 | 0.0803 | 0.381 | 0.263
2 | Cn1cnc2c(F)c(Nc3ccc(Br)cc3Cl)c(C(=O)NOCCO)cc21 [Selumetinib] + C[C@@H]1COCCN1C2=NC(=NC(=C2)C3(CC3)[S@](=N)(=O)C)C4=C5C=CNC5=NC=C4 [AZD6738] (first compound max 10 µM, 7x7, partner max 10 µM) | 0.963 | 0.408 | 0.392 | 0.647 | 0.537 | 0.628 | 0.175 | 0.76 | 0.795 | 0.339 | 0.916 | 0.834
3 | CN(C)CCCOc1ccc(-c2ccc3ncc4c(c3c2)n(C2CCOCC2)c(=O)n4C)cn1 [AZD0156] + C[C@@H]1COCCN1C2=NC(=NC(=C2)C3(CC3)[S@](=N)(=O)C)C4=C5C=CNC5=NC=C4 [AZD6738] (first compound max 1 µM, 7x7, partner max 10 µM) | 0.99 | 0.297 | 0.811 | 0.724 | 0.613 | 0.885 | 0.399 | 0.694 | 0.9 | 0.388 | 0.87 | 0.734
4 | C=CCn1c(=O)c2cnc(Nc3ccc(N4CCN(C)CC4)cc3)nc2n1-c1cccc(C(C)(C)O)n1 [AZD1775] + O=C(c1cc(Cc2n[nH]c(=O)c3ccccc23)ccc1F)N1CCN(C(=O)C2CC2)CC1 [Olaparib] (first compound max 1 µM, partner max 10 µM) | 1 | 0.173 | 0.458 | 0.831 | 0.377 | 0.839 | 0.359 | 0.574 | 0.861 | 0.279 | 0.682 | 0.382
5 | C[C@@H](c1ccc2nccn2c1)n1nnc2ncc(-c3cnn(C)c3)nc21 [Savolitinib] + Cc1c2c(nn1C)CSCc1cc(n(C)n1)CSc1cc(c3ccccc3c1)OCCCc1c(C(=O)O)n(C)c3c-2c(Cl)ccc13 [AZD5991] (first compound max 1 µM, 7x7, partner max 1 µM) | 0.151 | 0.2 | 0.205 | 0.285 | 0.18 | 0.47 | 0.194 | 0.199 | 0.735 | 0.244 | 0.202 | 0.282
6 | COc1cccc(OCCCN)c1-c1cc(Nc2cnc(C#N)cn2)n[nH]1 [Prexasertib] + C=CCn1c(=O)c2cnc(Nc3ccc(N4CCN(C)CC4)cc3)nc2n1-c1cccc(C(C)(C)O)n1 [AZD1775] (first compound max 1 µM, partner max 1 µM) | 1 | 0.482 | 0.906 | 0.956 | 0.793 | 0.942 | 0.575 | 0.819 | 0.926 | 0.644 | 0.953 | 0.866
7 | Cc1c2c(nn1C)CSCc1cc(n(C)n1)CSc1cc(c3ccccc3c1)OCCCc1c(C(=O)O)n(C)c3c-2c(Cl)ccc13 [AZD5991] + Cn1cnc2c(F)c(Nc3ccc(Br)cc3Cl)c(C(=O)NOCCO)cc21 [Selumetinib] (first compound max 1 µM, 7x7, partner max 3 µM) | 0.325 | 0.121 | 0.432 | 0.758 | 0.253 | 0.54 | 0.189 | 0.589 | 0.816 | 0.256 | 0.396 | 0.317
8 | CC1(C)CCC(CN2CCN(c3ccc(C(=O)NS(=O)(=O)c4ccc(NCC5CCOCC5)c([N+](=O)[O-])c4)c(Oc4cnc5[nH]ccc5c4)c3)CC2)=C(c2ccc(Cl)cc2)C1 [Venetoclax] + CCN(CCO)CCCOc1ccc2c(Nc3cc(CC(=O)Nc4cccc(F)c4)[nH]n3)ncnc2c1 [AZD2811] (first compound max 1 µM, 7x7, partner max 1 µM) | 1 | 0.175 | 0.235 | 0.308 | 0.225 | 0.802 | 0.162 | 0.244 | 0.334 | 0.124 | 0.5 | 0.441
9 | Cc1c2c(nn1C)CSCc1cc(n(C)n1)CSc1cc(c3ccccc3c1)OCCCc1c(C(=O)O)n(C)c3c-2c(Cl)ccc13 [AZD5991] + C[C@@H]1COCCN1C2=NC(=NC(=C2)C3(CC3)[S@](=N)(=O)C)C4=C5C=CNC5=NC=C4 [AZD6738] (first compound max 1 µM, 7x7, partner max 10 µM) | 1 | 0.275 | 0.677 | 0.819 | 0.544 | 0.891 | 0.279 | 0.707 | 0.962 | 0.791 | 0.86 | 0.736
10 | CN(C)CCCOc1ccc(-c2ccc3ncc4c(c3c2)n(C2CCOCC2)c(=O)n4C)cn1 [AZD0156] + C=CCn1c(=O)c2cnc(Nc3ccc(N4CCN(C)CC4)cc3)nc2n1-c1cccc(C(C)(C)O)n1 [AZD1775] (first compound max 1 µM, partner max 1 µM) | 1 | 0.0731 | 0.473 | 0.849 | 0.313 | 0.784 | 0.471 | 0.452 | 0.858 | 0.258 | 0.586 | 0.454
11 | COc1cccc(OCCCN)c1-c1cc(Nc2cnc(C#N)cn2)n[nH]1 [Prexasertib] + C[C@@H]1COCCN1C2=NC(=NC(=C2)C3(CC3)[S@](=N)(=O)C)C4=C5C=CNC5=NC=C4 [AZD6738] (first compound max 1 µM, 7x7, partner max 10 µM) | 1 | 0.405 | 0.88 | 0.713 | 0.744 | 0.912 | 0.324 | 0.819 | 0.922 | 0.554 | 0.863 | 0.874
12 | Cc1c2c(nn1C)CSCc1cc(n(C)n1)CSc1cc(c3ccccc3c1)OCCCc1c(C(=O)O)n(C)c3c-2c(Cl)ccc13 [AZD5991] + Cc1cc2ncnn2cc1Nc1ncc2c(n1)n(C1CCOCC1)c(=O)n2C [AZD7648] (first compound max 1 µM, 7x7, partner max 10 µM) | 0.52 | 0.201 | 0.244 | 0.564 | 0.339 | 0.63 | 0.279 | 0.256 | 0.816 | 0.267 | 0.258 | 0.235
13 | Cc1cc2ncnn2cc1Nc1ncc2c(n1)n(C1CCOCC1)c(=O)n2C [AZD7648] + O=C(c1cc(Cc2n[nH]c(=O)c3ccccc23)ccc1F)N1CCN(C(=O)C2CC2)CC1 [Olaparib] (first compound max 10 µM, 7x7, partner max 10 µM) | 0.454 | 0.0691 | 0.277 | 0.341 | 0.242 | 0.507 | 0.257 | 0.338 | 0.406 | 0.0811 | 0.426 | 0.182
14 | CCN(CCO)CCCOc1ccc2c(Nc3cc(CC(=O)Nc4cccc(F)c4)[nH]n3)ncnc2c1 [AZD2811] + O=C(c1cc(Cc2n[nH]c(=O)c3ccccc23)ccc1F)N1CCN(C(=O)C2CC2)CC1 [Olaparib] (first compound max 1 µM, 7x7, partner max 10 µM) | 1 | 0.153 | 0.297 | 0.551 | 0.206 | 0.622 | 0.0679 | 0.36 | 0.27 | 0.211 | 0.386 | 0.25
15 | COc1cccc(OCCCN)c1-c1cc(Nc2cnc(C#N)cn2)n[nH]1 [Prexasertib] + O=C(c1cc(Cc2n[nH]c(=O)c3ccccc23)ccc1F)N1CCN(C(=O)C2CC2)CC1 [Olaparib] (first compound max 1 µM, 7x7, partner max 10 µM) | 1 | 0.381 | 0.875 | 0.78 | 0.718 | 0.925 | 0.332 | 0.724 | 0.919 | 0.525 | 0.797 | 0.842
16 | CS(=O)(=O)CCNCc1ccc(-c2ccc3ncnc(Nc4ccc(OCc5cccc(F)c5)c(Cl)c4)c3c2)o1 [Lapatinib] + C[C@@H](Oc1cc(-c2cnn(C3CCNCC3)c2)cnc1N)c1c(Cl)ccc(F)c1Cl [Crizotinib] (first compound max 10 µM, 7x7, partner max 10 µM) | 0.881 | 0.931 | 0.942 | 0.986 | 0.882 | 0.991 | 0.809 | 0.908 | 0.859 | 0.224 | 0.796 | 0.906
17 | COc1nnc2ccc(N3CCC(c4ccc(OCCN5CCN(C)C(=O)[C@H]5C)cc4)CC3)nn12 [AZD5153] + C[C@@H]1COCCN1C2=NC(=NC(=C2)C3(CC3)[S@](=N)(=O)C)C4=C5C=CNC5=NC=C4 [AZD6738] (first compound max 1 µM, 7x7, partner max 10 µM) | 0.993 | 0.719 | 0.511 | 0.604 | 0.517 | 0.8 | 0.69 | 0.767 | 0.82 | 0.74 | 0.903 | 0.889
18 | Cn1cnc2c(F)c(Nc3ccc(Br)cc3Cl)c(C(=O)NOCCO)cc21 [Selumetinib] + CC(C)n1c(=O)n(C)c2cnc3cc(F)c(-c4ccc(OCCCN5CCCCC5)nc4)cc3c21 [AZD1390] (first compound max 10 µM, 7x7, partner max 0.3 µM) | 0.108 | 0.115 | 0.144 | 0.323 | 0.123 | 0.369 | 0.102 | 0.573 | 0.12 | 0.0966 | 0.32 | 0.409
